Experimental data reported in patent EP4212151B1, “STILBENE, FLAVONOL OR CURCUMIN COMPOUNDS FOR USE IN THE TREATMENT OF AGE-RELATED MACULAR DEGENERATION (AMD; ARMD)” (Knepper, Paul A., priority 2022, dated 2023).
Values joined by “and” are separate entries in the source; they are usually repeats but may differ in a detail not shown here. Equal entries are not always repeated. Where two headings read alike, the source gives them in different places.

What was measured:
[1] = cited from earlier work; for maximum dose (highest dose evaluated in a repeated-dose clinical trial and found safe and tolerable): human, in vivo; for dose found well tolerated, low or no toxicity: clinical trials, doses as high as
[2] = cited from earlier work; for Half-life: human, in vivo; for Bioavailability: oral
[3] = system: Dry AMD Subjects; experiment: Drusen volume by OCT (manual segmentation, ImageJ) in dry AMD subjects, oral treatment for 18 months; assay type: in vivo, human; conditions: oral C 2660 mg/day or RQC 200/240/2660 mg/day; for Drusen Volume % Change: 18 months vs baseline; for Drusen Volume, 18 Months: after 18 months
Text: As stated hereinabove, dry AMD is a common disease characterized by retinal pathology. A typical finding of dry AMD is the presence of drusen and/or geographic atrophy. TABLE 1 below depicts drusen volume at baseline and after 18 months according to drusen size in all participants (C or RQC). […] To compare the changes in drusen volume found in this study in subjects taking oral curcumin against what would be expected over the natural course of the disease, optical coherence tomography (OCT) scans were evaluated. OCT is a new retinal imaging technology which is useful to analyze drusen volume and geographic atrophy. Each subject was scanned 6 months before treatment. This allowed for the examination of the natural history of a subject's drusen progression compared to progression with treatment. Standard deviation (SD) is expressed in mm^3. Statistical significance was determined by Wilcoxon Rank Sum test. Drusen volume was measured by manual segmentation using ImageJ software. Drusen size was determined by the widest width of the drusen and expressed in µm. […]

[4] = system: Dry AMD Subjects; experiment: Geographic atrophy area and growth rate in dry AMD subjects, Phase 1 study, 12 months; assay type: in vivo, human
Experimental: The effect of RQC and curcumin on geographic atrophy growth was evaluated in a Phase 1 study (TABLE 5, below) TABLE 5.
The expected untreated GA growth rate reported in the literature is 1.20 mm^2/year (or 0.18 mm/year adjusted for baseline lesion area). […] The decrease in GA growth rate was highly significant (p = 0.0004) compared with untreated samples [Yehoshua, et al., 2011] and remained highly significant when adjusted for differences in baseline lesion area (p = 0.0001). […]

[5] = system: superactivated platelets (SAPs); experiment: In-vitro flow cytometry platelet assay: superactivated platelets (SAP% of all platelets) after thrombin and convulxin; combination index by CompuSyn; assay type: cell-based; conditions: Homo sapiens; for IC50: individually (single agent), read-out: IC50 for the reduction of SAPs; for inhibition at 0.01 µM: single agent 0.01 µM; for inhibition at 0.01 µM / inhibition at 0.1 µM / inhibition at 1 µM / inhibition at 5 µM / inhibition at 10 µM: read-out: % change; for inhibition at 0.1 µM: single agent 0.1 µM; for inhibition at 1 µM: single agent 1 µM; for inhibition at 5 µM: single agent 5 µM; for inhibition at 10 µM: single agent 10 µM
Text: Briefly, platelet-rich plasma (PRP) from patients with age-related macular degeneration (n = 9) are isolated from whole blood and challenged using dual agonists thrombin and convulxin (collagen substitute) to stimulate superactivated platelets (SAPs). SAPs are defined as positive for surface fibrinogen and negative for activated integrin αIIbβ3, whereas activated platelets are defined as negative for surface fibrinogen and positive for activated integrin αIIbβ3. Surface fibrinogen is detected by pre-treating platelets with biotinylated-fibrinogen (5 µg/mL) followed by staining with any common fluorophore conjugated to streptavidin. The streptavidin-fluorophore complex binds to the biotin-fibrinogen complex present on SAPs but not activated platelets due to the differing composition of charged surface proteins. Activated integrin αIIbβ3 - characteristic of activated platelets - is detected using the PAC-1 antibody conjugated to any compatible fluorophore. […] The effect of RQC on SAPs is determined by pre-treating diluted PRP samples with combinations of R, Q, and/or C for 5 minutes at 37°C followed by challenge with thrombin and convulxin for 5 minutes at 37°C. The samples are then stained with the fluorophore-conjugates and fixed in 3% formalin before analysis using a flow cytometer. SAP percentage is calculated as a percentage of all platelets. The effect size of RQC is determined by the change ion SAP percentage before and after treatment with RQC and is used as input to calculate drug synergy using the CompuSyn software developed by Chou, et al. Drug synergy, additivism, and antagonism are defined as a combination index (CI) score less than, equal to, or greater than 1, respectively. The level of drug synergy can be further stratified by quantile, tertile, or quartile in cases where numerous synergistic doses are compared.
The average combination index values of low, medium, and high doses of RQC for the inhibition of SAPs in AMD subjects was determined. The Combination Index (CI) theorem derived by Chou-Talalay [Chou, 2010] was calculated for each combination drug treatment of R, Q, and C. The CI is useful in quantifying levels of synergism and antagonism. The theorem is based on the median-effect equation to provide a common link between a single entity and multiple entities. A CI value < 1 indicates synergism, a CI equal to 1 indicates additivity, and a CI > 1 indicates antagonism. RQC was very effective in low, medium, and high doses.
R, Q, and C at three different dose levels each were tested in all possible combinations, resulting in 27 possible double and 27 possible triple combinations within each subject. The doses tested were R (1, 5, and 10 µM), Q (1, 5, and 10 µM), and C (0.01, 0.1, and 1 µM) and the effect was based on the inhibition of SAPs. To obtain the mean number of synergistic doses in each cohort, the average CI score for each dose combination was calculated within each cohort, producing a set of 27 double combination CI scores and 27 triple combination CI scores per cohort. Out of each set of 27 dose combinations, the number of CI scores under 0.8 (highly synergistic) was counted and reported here. For example, in control subjects 5 out of 27 possible double combinations were synergistic while 25 out of 27 possible triple combinations were synergistic based on the mean CI for each dose in the cohort.

[6] = drusen ≥ 250 µm, listed as curcumin

In the case of `COc1cc(/C=C/C(=O)CC(=O)/C=C/c2ccc(O)c(OC)c2)ccc1O` [Curcumin, (1E,6E)-1,7-bis(4-Hydroxy-3-methoxyphenyl)-1,6-heptadiene-3,5-dione], the “maximum dose (highest dose evaluated in a repeated-dose clinical trial and found safe and tolerable)” value (from here on “maximum dose”) [1] is given as 12000 mg/day, the “dose safe and well tolerated” value ([1]; review of clinical trials, doses up to, only minimal, mostly gastrointestinal side effects) is given as 8 to 12 g/day and the “Half-life” value [2] is given as 5 to 6 h. The Bioavailability [2] was 0.01-0.1%, the Cmax ([2]; read-out: maximum plasma concentration, two capsules (1000 mg each)) was 600 to 1000 nM and the “Drusen Volume % Change” value ([3]; All drusen) was -13.0%. For the same compound, the “Drusen Volume, 18 Months” value ([3]; All drusen) was 8.70 mm^3, the “Drusen Volume, 18 Months” value ([3]; All drusen, listed as curcumin) was 8.7 (± 1.6) mm^3 and the “Drusen Volume, Baseline” value ([3]; All drusen) was 10.1 mm^3. For the same compound, the “Drusen Volume, Baseline” value ([3]; All drusen, listed as curcumin) was 10.1 (± 1.60) mm^3, the “Drusen Volume % Change” value ([3]; drusen 63-124 µm) was 0.0% and the “Drusen Volume, 18 Months” value ([3]; drusen 63-124 µm) was 0.08 mm^3. The “Drusen Volume, Baseline” value ([3]; drusen 63-124 µm) was 0.08 mm^3, the “Drusen Volume % Change” value ([3]; drusen 125-249 µm) was -1.6% and the “Drusen Volume, 18 Months” value ([3]; drusen 125-249 µm) was 3.70 mm^3. The “Drusen Volume, Baseline” value ([3]; drusen 125-249 µm) was 3.80 mm^3, the “Drusen Volume % Change” value ([3]; drusen ≥ 250 µm) was -20.0% and the “Drusen Volume % Change” value [3, 6] was -30.0% and -20.0%. For the same compound, the “Drusen Volume, 18 Months” value ([3]; drusen ≥ 250 µm) was 6.00 mm^3, the “Drusen Volume, 18 Months” value [3, 6] was 6.00 (± 1.30) mm^3 and the “Drusen Volume, Baseline” value ([3]; drusen ≥ 250 µm) was 7.50 mm^3. For the same compound, the “Drusen Volume, Baseline” value [3, 6] was 0.75 (± 1.30) mm^3, the “Growth Rate (mm^2/y)” value ([4]; GA, mean of arm, 12 months of treatment) was 0.68 ± 0.79 mm^2/y and the “Growth Rate (mm^2/y)” value ([4]; GA, mean of arm, 12 months of treatment, listed as curcumin) was 0.68 mm^2/y. The “Baseline Area (mm^2)” value ([4]; GA, mean of arm, baseline) was 1.08 ± 1.10 mm^2, the “Growth Rate (mm/y)” value ([4]; GA, mean of arm, square root transformed (adjusted for baseline lesion area), 12 months) was 0.21 ± 0.25 mm/y and the “Growth Rate (mm/y)” value ([4]; GA, mean of arm, square root transformed (adjusted for baseline lesion area), 12 months, listed as curcumin) was 0.21 mm/y. For the same compound, the “Area (mm^2), Baseline” value ([4]; geographic atrophy, individual eyes (subject c0, eye c2, GA category c7), baseline, listed as C) was 1.794 mm^2 and 2.254 mm^2 and 0.147 mm^2 and 0.134 mm^2, the “Growth Rate (mm^2/y)” value ([4]; geographic atrophy, individual eyes, 12 months, listed as C) was 1.462 mm^2/y and 1.258 mm^2/y and -0.037 mm^2/y and 0.037 mm^2/y and the “Area (mm^2), 12 mo” value ([4]; geographic atrophy, individual eyes, after 12 months of treatment, listed as C) was 3.256 mm^2 and 3.512 mm^2 and 0.110 mm^2 and 0.171 mm^2. The “Growth Rate (mm/y)” value ([4]; geographic atrophy, individual eyes, square root transformed, 12 months, listed as C) was 0.373 mm/y and 0.465 mm/y and -0.046 mm/y and 0.055 mm/y, the “Growth Rate (mm^2/y)” value ([4]; nascent GA (nGA), mean of arm, 12 months of treatment) was 0.00 ± 0.05 mm^2/y and the “Growth Rate (mm^2/y)” value ([4]; nascent GA (nGA), mean of arm, 12 months of treatment, listed as curcumin) was 0.005 mm^2/y. For the same compound, the “Baseline Area (mm^2)” value ([4]; nascent GA (nGA), mean of arm, baseline) was 0.14 ± 0.01 mm^2, the “Growth Rate (mm/y)” value ([4]; nascent GA (nGA), mean of arm, square root transformed (adjusted), 12 months) was 0.01 ± 0.07 mm/y and the “Growth Rate (mm/y)” value ([4]; nascent GA (nGA), mean of arm, square root transformed (adjusted), 12 months, listed as curcumin) was 0.01 mm/y. It also gave an IC50 [5] of 3.6 µM, an inhibition at 0.01 µM ([5]; AMD (GA) subject) of 11.5% and an inhibition at 0.01 µM ([5]; control subject) of 24.1%. The inhibition at 0.1 µM ([5]; AMD (GA) subject) was 18.4%, the inhibition at 0.1 µM ([5]; control subject) was 36.8% and the inhibition at 1 µM ([5]; AMD (GA) subject) was 37%. The inhibition at 1 µM ([5]; control subject) was 33.7%.
In the case of `O=c1c(O)c(-c2ccc(O)c(O)c2)oc2cc(O)cc(O)c12` [Quercetin, 2-(3,4-dihydroxyphenyl)-3,5,7-trihydroxychromen-4-one;dihydrate], the “dose found well tolerated, low or no toxicity” value [1] is given as at most 5 g per day, the “maximum dose” value [1] is given as 5000 mg/day and the IC50 [5] is given as 31 µM. For the same compound, the inhibition at 1 µM ([5]; AMD (GA) subject) was 6.7%, the inhibition at 1 µM ([5]; control subject) was 36.9% and the inhibition at 5 µM ([5]; AMD (GA) subject) was 43.9%. For the same compound, the inhibition at 5 µM ([5]; control subject) was 38.2%, the inhibition at 10 µM ([5]; AMD (GA) subject) was 27.3% and the inhibition at 10 µM ([5]; control subject) was 24.7%.
For `Oc1ccc(/C=C/c2cc(O)cc(O)c2)cc1` [Resveratrol, 5-[(1E)2-(4-hydroxyphenyl)ethenyl]-1,3-benzenediol], the “dose found well tolerated, low or no toxicity” value [1] is given as at most 5 g per day, the “maximum dose” value [1] is given as 5000 mg/day and the “Half-life” value [2] is given as 2 to 5 h. For the same compound, the Bioavailability [2] was 0.1-0.4%, the IC50 [5] was 36 µM and the inhibition at 1 µM ([5]; AMD (GA) subject) was 8.6%. The inhibition at 1 µM ([5]; control subject) was 19.6%, the inhibition at 5 µM ([5]; AMD (GA) subject) was 17.1% and the inhibition at 5 µM ([5]; control subject) was 24.6%. For the same compound, the inhibition at 10 µM ([5]; AMD (GA) subject) was 18.6% and the inhibition at 10 µM ([5]; control subject) was 30.5%.
